The values below come from publication PMC3001897, “High-Throughput Chemical Screen Identifies a Novel Potent Modulator of Cellular Circadian Rhythms and Reveals CKIα as a Clock Regulatory Kinase” (PLoS Biology, 2010).

For one data set, the system named is cultured cells. More on the design: method as in PMID 16983144, PMID 15767683, PMID 17876059. Conditions: ref [14],[16]–[17]; cited from earlier work.
Another data set relates to SCN explants. More on the design: method as in PMID 18448638. Conditions: ref [59]; cited from earlier work.
Data set [1] concerns Bmal1-dLuc U2OS cells. The experiment in a line: U2OS cell-based circadian assay (Bmal1-dLuc luminescence rhythms). More on the design: species or system human. Conditions: Bmal1-dLuc U2OS cells; for Effect on circadian period: various concentrations; for Period effect compared with longdaysin: Figure S10. The protocol:
(§1) The compound screen was done with the high-throughput circadian assay system as described previously. In brief, Bmal1-dLuc U2OS cells were suspended in the culture medium (DMEM supplemented with 10% fetal bovine serum, 0.29 mg/ml L-glutamine, 100 units/ml penicillin, and 100 µg/ml streptomycin) and plated onto 384-well white solid-bottom plates at 20 µl (2,000 cells) per well. After 2 d, 50 µl of the explant medium (DMEM supplemented with 2% B27, 10 mM HEPES, 0.38 mg/ml sodium bicarbonate, 0.29 mg/ml L-glutamine, 100 units/ml penicillin, 100 µg/ml streptomycin, 0.1 mg/ml gentamicin, and 1 mM luciferin, pH 7.2) was dispensed to each well, followed by the application of 500 nl of compounds (dissolved in DMSO; final 0.7% DMSO). The plate was covered with an optically clear film and set to luminescence monitoring system equipped with a CCD imager (ViewLux, Perkin Elmer). The luminescence was recorded every 2 h for 3–4 days. In follow-up studies, the luminescence was recorded every 100 min by using a microplate reader (Infinite M200, Tecan). The period parameter was obtained from the luminescence rhythm by curve fitting program CellulaRhythm or MultiCycle (Actimetrics), both of which gave similar results.

The target in the next data set is CKIδ (Homo sapiens, UniProt P48730). The experiment in a line: In vitro kinase assay, CKIδ. Set-up: purchased Millipore 14-520. In kind it is biochemical. The protocol:
(§2) The CKIδ, CKIα, CDK7, and ERK2 kinase assays were performed on 384-well plates (10 µl volume). The reaction mixture was as follows: for CKIδ, 2 ng/µl CKIδ (Millipore, 14-520), 50 µM peptide substrate RKKKAEpSVASLTSQCSYSS corresponding to human PER2 Lys659-Ser674 [47], and CKI buffer (40 mM Tris, 10 mM MgCl2, 0.5 mM DTT, 0.1 mg/ml BSA, pH 7.5); for CKIα, 1 ng/µl CKIα (Invitrogen, PV3850), 50 µM CKI peptide substrate (Anaspec, 60547-1), and CKI buffer; for CDK7, 5 ng/µl CDK7 (Millipore, 14-476), 100 µM Cdk7/9 peptide substrate (Millipore, 12-526), and CKI buffer; for ERK2, 1.5 ng/µl ERK2 (Millipore, 14-550), 0.8 µg/µl MBP (Millipore, 13-104), and ERK buffer (50 mM Tris, 10 mM MgCl2, 0.5 mM DTT, 1 mM EGTA, pH 7.5). Five hundred nl of compound was added to the mixture (final 5% DMSO), and the reaction was started by adding ATP (final 5 µM). After incubation at 30°C for 3h, 10 µl of Kinase-Glo Luminescent Kinase Assay reagent (Promega) was added, and the luminescence was detected to determine remaining ATP amount. […] IC50 value was obtained by using Prism software (GraphPad Software).

Another data set concerns the target CKIα (Homo sapiens, UniProt P48729). The experiment in a line: In vitro kinase assay, CKIα. It counts as biochemical. More on the design: purchased Invitrogen PV3850. The protocol:
as §2

In a further data set the target is T1, CDK7 (Homo sapiens, UniProt P50613).
T1 construct: purchased Millipore 14-476
The experiment in a line: In vitro kinase assay, CDK7. It counts as biochemical. The method, then:
as §2

The next data set deals with T2, ERK2 (Homo sapiens, UniProt P28482).
T2 construct: purchased Millipore 14-550
The experiment in a line: In vitro kinase assay, ERK2. It counts as biochemical. The method, then:
as §2

For data set [2], the system named is Bmal1-dLuc U2OS cells. The experiment in a line: Cytotoxicity in the U2OS circadian assay. It counts as cell-based, human. The protocol:
as §1

What is called IC50 is the concentration that gives 50% inhibition. Read a high IC50 as lower potency.

SMILES strings stand for the structures.

T2 sequence (P28482 whole entry, species assumed): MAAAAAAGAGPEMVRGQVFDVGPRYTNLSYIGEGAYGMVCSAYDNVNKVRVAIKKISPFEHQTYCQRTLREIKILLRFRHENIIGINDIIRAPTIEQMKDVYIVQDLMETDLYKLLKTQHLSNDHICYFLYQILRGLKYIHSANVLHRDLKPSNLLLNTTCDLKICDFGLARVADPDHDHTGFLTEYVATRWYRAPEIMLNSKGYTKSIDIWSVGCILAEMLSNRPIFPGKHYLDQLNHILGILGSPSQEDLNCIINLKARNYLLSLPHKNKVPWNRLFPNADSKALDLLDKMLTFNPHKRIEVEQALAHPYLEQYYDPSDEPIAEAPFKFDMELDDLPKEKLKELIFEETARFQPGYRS
Chain of CKIα (P48729 whole entry): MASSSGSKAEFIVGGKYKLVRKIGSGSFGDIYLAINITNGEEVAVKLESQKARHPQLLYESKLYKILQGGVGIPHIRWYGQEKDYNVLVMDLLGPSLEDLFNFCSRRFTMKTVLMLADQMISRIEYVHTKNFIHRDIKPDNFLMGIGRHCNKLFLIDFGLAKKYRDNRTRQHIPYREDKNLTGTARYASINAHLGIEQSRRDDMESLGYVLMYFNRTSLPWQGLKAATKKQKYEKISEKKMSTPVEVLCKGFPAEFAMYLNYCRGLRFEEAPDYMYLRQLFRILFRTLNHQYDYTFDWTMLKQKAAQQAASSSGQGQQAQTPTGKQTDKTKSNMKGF
T1 sequence (P50613 whole entry): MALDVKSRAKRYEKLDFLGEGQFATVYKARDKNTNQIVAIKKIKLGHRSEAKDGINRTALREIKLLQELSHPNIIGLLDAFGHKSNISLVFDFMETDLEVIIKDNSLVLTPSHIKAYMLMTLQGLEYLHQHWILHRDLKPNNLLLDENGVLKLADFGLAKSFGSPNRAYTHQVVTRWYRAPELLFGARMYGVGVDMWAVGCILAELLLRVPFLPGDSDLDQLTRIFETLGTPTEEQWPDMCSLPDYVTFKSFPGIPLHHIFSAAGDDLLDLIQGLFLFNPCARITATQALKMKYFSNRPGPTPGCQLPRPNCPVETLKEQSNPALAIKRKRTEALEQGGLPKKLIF
T1 sequence (P51946 whole entry partner): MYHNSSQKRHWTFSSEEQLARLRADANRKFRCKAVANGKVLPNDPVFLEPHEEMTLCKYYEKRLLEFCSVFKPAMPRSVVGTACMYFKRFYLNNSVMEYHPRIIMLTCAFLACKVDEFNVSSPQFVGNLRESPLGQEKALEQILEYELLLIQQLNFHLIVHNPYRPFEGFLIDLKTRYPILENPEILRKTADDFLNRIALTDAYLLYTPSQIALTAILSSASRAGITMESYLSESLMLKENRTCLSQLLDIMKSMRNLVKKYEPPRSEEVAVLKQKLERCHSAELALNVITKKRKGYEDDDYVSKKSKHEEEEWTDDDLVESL
T1 sequence (P51948 whole entry partner): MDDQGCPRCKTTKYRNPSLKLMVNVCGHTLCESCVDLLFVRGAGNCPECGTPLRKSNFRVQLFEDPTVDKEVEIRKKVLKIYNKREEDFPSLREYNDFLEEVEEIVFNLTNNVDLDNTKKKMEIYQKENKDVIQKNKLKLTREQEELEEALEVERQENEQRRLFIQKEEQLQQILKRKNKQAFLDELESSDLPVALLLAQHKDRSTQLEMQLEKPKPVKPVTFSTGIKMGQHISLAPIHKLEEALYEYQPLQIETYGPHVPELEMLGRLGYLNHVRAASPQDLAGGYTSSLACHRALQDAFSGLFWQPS
Chain of CKIδ (P48730 whole entry, species assumed): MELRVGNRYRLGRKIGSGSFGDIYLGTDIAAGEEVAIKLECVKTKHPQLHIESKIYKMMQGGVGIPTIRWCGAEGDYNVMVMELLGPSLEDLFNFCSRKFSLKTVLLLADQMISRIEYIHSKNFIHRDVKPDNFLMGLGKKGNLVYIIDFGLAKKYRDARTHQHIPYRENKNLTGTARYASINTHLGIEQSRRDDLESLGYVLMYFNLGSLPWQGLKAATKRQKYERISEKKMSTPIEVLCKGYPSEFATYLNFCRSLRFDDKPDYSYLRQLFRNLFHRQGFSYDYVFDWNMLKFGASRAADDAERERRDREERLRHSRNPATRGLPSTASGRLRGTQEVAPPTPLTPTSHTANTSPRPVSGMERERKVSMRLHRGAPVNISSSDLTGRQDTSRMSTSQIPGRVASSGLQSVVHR

As for `NCCNS(=O)(=O)c1ccc(Cl)c2ccncc12` [CKI-7], the “Effect on period in cultured cells” value with cultured cells was “period lengthening”.
As for `N#CC(=C(/N)Sc1ccccc1N)/C(C#N)=C(/N)Sc1ccccc1N` [Compound U0126], in the data set with SCN explants, the “Effect on circadian rhythms in SCN explants” value is on record as “Attenuation of the circadian rhythms”.
As to `CC(C)n1cnc2c(NCc3ccccc3)ncnc21` [Compound 1, N-benzyl-9-isopropyl-9H-purin-6-amine], in the data set on Bmal1-dLuc U2OS cells [1], the “Effect on circadian period” value was “strongly lengthened the period in a dose-dependent manner”. Further, the “Concentration for period change, 5 h” value in the data set with Bmal1-dLuc U2OS cells [1] (from Figure 1B) is given as 4.4 µM. Moreover, in the data set with Bmal1-dLuc U2OS cells [1] (from Figure 1B), the “Concentration for period change, 10 h” value was 17 µM. Moreover, the “Concentration for period change, 15 h” value in the data set with Bmal1-dLuc U2OS cells [1] (from Figure 1B) was 38 µM. For the same compound, the IC50 against CKIδ (ATP 5 µM, from Figure 2E) is 21 µM; against CKIα (ATP 5 µM, from Figure 2E), 23 µM; at CDK7 (ATP 5 µM, from Figure 2E), 29 µM; against ERK2 (ATP 5 µM, from Figure 2E) it was 160 µM. For the same compound, the “Potency against CKIδ relative to longdaysin (times less)” value at CKIδ (in vitro kinase assay) is reported as around 3 times. Moreover, the “Potency against CKIα relative to longdaysin (times less)” value at CKIα (in vitro kinase assay) is on record as around 3 times. In addition, the “Inhibition of CDK7 compared with longdaysin” value on CDK7 (in vitro kinase assay) is “inhibited CDK7 similarly to longdaysin”. The “Potency against ERK2 relative to longdaysin (times less)” value on ERK2 (in vitro kinase assay) is around 3 times.
As for `COc1cc(OC)c(C=C2C(O)=Nc3ccccc32)c(OC)c1` [IC261, reference compound], in the data set on cultured cells, the “Effect on period in cultured cells” value was “period lengthening”. Besides, in the data set on Bmal1-dLuc U2OS cells [1], the “Period effect compared with longdaysin” value is reported as “smaller period effects”.
Take `NC(=O)c1ccc(-c2nc(-c3ccc4c(c3)OCCO4)c(-c3ccccn3)[nH]2)cc1` [Compound D4476, reference compound]: the “Effect on period in cultured cells” value with cultured cells is “period lengthening”. For the same compound, the “Period effect compared with longdaysin” value in the data set with Bmal1-dLuc U2OS cells [1] was “smaller period effects”. For the same compound, in the data set on Bmal1-dLuc U2OS cells [2], the Concentration showing cytotoxicity was determined as 71 µM.
For the compound `CC(=O)NCCCCCCNc1nc(NCc2cccc(C(F)(F)F)c2)c2ncn(C(C)C)c2n1` [Compound 2, N-(6-(9-isopropyl-6-(3-(trifluoromethyl)benzylamino)-9H-purin-2-ylamino)hexyl)acetamide], in the data set on Bmal1-dLuc U2OS cells [1], the “Effect on circadian period” value was “retained the period lengthening effect”.
